In patent publication US20180099931A1 (AbbVie S.à.r.l., priority 2016, published 2018):
pEC50: −log10 of the molar value. Read-outs that look alike come from different tables or passages of the source.

Target: T1, F508delCFTR (Homo sapiens, UniProt P13569, DEL508-508)
T1 construct: expressed in transfected cells; host or cells: CFBE41o- human lung-derived epithelial cells (CFBE4lo-F508delCFTR-HRP), doxycycline-inducible
Experiment: Cell Surface Expression-Horse Radish Peroxidase (CSE-HRP) Assay;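 on Maximum % activity (with co-corrector): co-corrector and positive control are both the same reference corrector at 2 µM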;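 on Maximum % activity (without co-corrector): percent of the 2 µM on-plate positive control corrector response above DMSO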
Assay type: cell-based
Details: for Maximum % activity (with co-corrector) / Emax: maximum at any tested concentration, normalized to on-plate positive control; for Emax: read-out: Maximum % activity (without co-corrector)

[1] = CSE-HRP, test compound without co-corrector, read-out: EC50 (without co-corrector)
[2] = CSE-HRP, with co-corrector (2 μM of 3-[(2R,4R)-4-({[1-(2,2-difluoro-1,3-benzodioxol-5-yl)cyclopropyl]carbonyl}amino)-7-methoxy-3,4-dihydro-2H-chromen-2-yl]benzoic acid), read-out: EC50 (with co-corrector)
[3] = CSE-HRP, with co-corrector (2 μM)
[4] = test compound without co-corrector
[5] = test compound without co-corrector, read-out: EC50 (without co-corrector)
[6] = with co-corrector (2 μM of 3-[(2R,4R)-4-({[1-(2,2-difluoro-1,3-benzodioxol-5-yl)cyclopropyl]carbonyl}amino)-7-methoxy-3,4-dihydro-2H-chromen-2-yl]benzoic acid), read-out: EC50 (with co-corrector)
[7] = with co-corrector (2 μM of 3-[(2R,4R)-4-({[1-(2,2-difluoro-1,3-benzodioxol-5-yl)cyclopropyl]carbonyl}amino)-7-methoxy-3,4-dihydro-2H-chromen-2-yl]benzoic acid)

T1 sequence (P13569 with tags, fused parts or gaps DEL508-508): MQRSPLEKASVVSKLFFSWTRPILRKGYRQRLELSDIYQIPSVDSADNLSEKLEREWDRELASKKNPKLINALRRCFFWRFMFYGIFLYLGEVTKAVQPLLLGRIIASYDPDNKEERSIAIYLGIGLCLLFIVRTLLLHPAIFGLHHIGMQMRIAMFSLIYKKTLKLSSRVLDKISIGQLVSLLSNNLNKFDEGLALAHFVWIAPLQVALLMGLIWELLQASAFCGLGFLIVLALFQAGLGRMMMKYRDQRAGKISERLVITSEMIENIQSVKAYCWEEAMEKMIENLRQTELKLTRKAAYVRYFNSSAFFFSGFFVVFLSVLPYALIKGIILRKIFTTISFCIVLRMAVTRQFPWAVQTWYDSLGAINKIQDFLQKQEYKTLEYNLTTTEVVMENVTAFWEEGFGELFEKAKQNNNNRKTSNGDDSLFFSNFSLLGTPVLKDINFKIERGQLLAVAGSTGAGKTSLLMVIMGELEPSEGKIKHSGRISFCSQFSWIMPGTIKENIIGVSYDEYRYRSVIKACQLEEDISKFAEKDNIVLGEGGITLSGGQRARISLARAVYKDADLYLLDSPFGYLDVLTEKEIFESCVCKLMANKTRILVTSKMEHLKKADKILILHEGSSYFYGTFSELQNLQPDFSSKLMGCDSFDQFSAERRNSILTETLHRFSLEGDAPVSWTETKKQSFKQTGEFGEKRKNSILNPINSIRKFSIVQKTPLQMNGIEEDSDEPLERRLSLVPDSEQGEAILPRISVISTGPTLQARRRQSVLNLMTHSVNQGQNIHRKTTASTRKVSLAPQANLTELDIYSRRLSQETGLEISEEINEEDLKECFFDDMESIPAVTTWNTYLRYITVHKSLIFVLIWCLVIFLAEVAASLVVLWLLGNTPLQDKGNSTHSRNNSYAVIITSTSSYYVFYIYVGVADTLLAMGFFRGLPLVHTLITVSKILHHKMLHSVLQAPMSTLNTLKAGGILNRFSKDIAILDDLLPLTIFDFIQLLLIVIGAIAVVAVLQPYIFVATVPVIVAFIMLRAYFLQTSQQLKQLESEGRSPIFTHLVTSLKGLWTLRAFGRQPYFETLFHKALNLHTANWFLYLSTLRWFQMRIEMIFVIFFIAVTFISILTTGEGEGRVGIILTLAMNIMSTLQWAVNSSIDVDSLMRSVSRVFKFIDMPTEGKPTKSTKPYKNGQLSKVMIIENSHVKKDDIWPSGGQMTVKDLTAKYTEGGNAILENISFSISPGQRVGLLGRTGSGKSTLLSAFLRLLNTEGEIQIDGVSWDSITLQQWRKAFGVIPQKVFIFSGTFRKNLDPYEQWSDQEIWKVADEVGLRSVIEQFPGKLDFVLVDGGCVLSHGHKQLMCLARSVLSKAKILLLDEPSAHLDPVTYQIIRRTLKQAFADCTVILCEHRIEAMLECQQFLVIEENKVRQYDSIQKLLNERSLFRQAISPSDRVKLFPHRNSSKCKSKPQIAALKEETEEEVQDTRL

Row | pEC50 [1] | pEC50 [2] | Maximum % activity (with co-corrector) [3] | Emax (CSE-HRP, without co-corrector) [%] | Emax [4] [%] | pEC50 [5] | pEC50 [6] | Maximum % activity (with co-corrector) (with co-corrector (2 μM)) | Maximum % activity (with co-corrector) [7] | Emax (without co-corrector) [%] | Compound
1 |  |  |  |  | 100 to 200 | 5.00 to 6.00 | > 6.00 | +++ (≥350) |  |  | COc1cc2c(cc1CN[C@H]1[C@H](C(C)(C)C)[C@@H](C(=O)O)N(C(=O)OC(C)C)[C@H]1c1ccccc1)C(C)(C)CCC2(C)C [III-227]
2 |  |  |  |  | > 200 | 5.00 to 6.00 | > 6.00 | +++ (≥350) |  |  | COc1ccc(C(C)(C)C)cc1CN[C@H]1[C@H](C(C)(C)C)[C@@H](C(=O)O)N(C(=O)C2CCCCC2C)[C@H]1c1cccnc1N(C)C (some centres unmarked) [III-205]
3 |  |  |  |  | < 100 | < 5.00 | < 5.00 | + (<150) |  |  | CC(C)(C)[C@H]1[C@H](Nc2ccc(Cn3ccccc3=O)cn2)[C@H](c2ccccc2)N(C(=O)C2CCCCC2)[C@@H]1C(=O)O [III-153]
4 |  |  |  |  | 100 to 200 | > 6.00 | > 6.00 | +++ (≥350) |  |  | COc1cc2c(cc1CN[C@H]1[C@H](C(C)(C)C)[C@@H](C(=O)O)N(C(=O)C3CCCCC3)[C@H]1c1ccccc1)C(C)(C)CCC2(C)C [III-119]
5 |  |  |  |  | < 100 | < 5.00 | 5.00 to 6.00 | ++ (≥150 and <350) |  |  | COc1ccc(C(F)(F)F)cc1CN[C@H]1[C@H](C(C)(C)C)[C@@H](C(=O)O)N(C(=O)[C@](OC)(c2ccccc2)C(F)(F)F)[C@H]1c1ccccc1 [III-100]
6 |  |  |  |  | < 100 | 5.00 to 6.00 | 5.00 to 6.00 |  | ++ (≥150 and <350) |  | CC(C)N(C(=O)N1[C@H](c2ccccc2)[C@H](NCc2ccccc2OC(F)F)[C@@H](C)[C@@H]1C(=O)O)C(C)C (racemic) [III-34]
7 |  |  |  |  | > 200 | > 6.00 | > 6.00 | +++ (≥350) |  |  | COc1ccc(C(C)(C)C)cc1CN[C@H]1[C@H](C(C)(C)C)[C@@H](C(=O)O)N(C(=O)C2CCC(C)CC2)[C@H]1c1ccccc1 (some centres unmarked) [III-174]
8 |  |  |  |  | < 100 | 5.00 to 6.00 | 5.00 to 6.00 |  | +++ (≥350) |  | CC(C)OC(=O)N1[C@H](c2ccccc2)[C@H](Nc2cc(C(F)(F)F)ccn2)[C@@H](C(C)(C)C)[C@@H]1C(=O)O (racemic) [III-38]
9 |  |  |  |  | < 100 | < 5.00 | 5.00 to 6.00 | ++ (≥150 and <350) |  |  | Cc1cc(C(F)(F)F)cc(N[C@@H]2[C@@H](C(C)(C)C)[C@H](C(=O)O)N(C(=O)[C@H]3C[C@H]4CC[C@@H]3C4)[C@@H]2c2ccccc2)n1 (racemic) [III-110]

The remaining lines, values behind:

Row | Compound | pEC50 [1] | pEC50 [2] | Maximum % activity (with co-corrector) [3] | Emax (CSE-HRP, without co-corrector) [%] | Emax [4] [%] | pEC50 [5] | pEC50 [6] | Maximum % activity (with co-corrector) (with co-corrector (2 μM)) | Maximum % activity (with co-corrector) [7] | Emax (without co-corrector) [%]
10 | COc1ncc(Br)cc1CN[C@H]1[C@H](C(C)(C)C)[C@@H](C(=O)O)N(C(=O)[C@@H]2CCCCO2)[C@H]1c1ccccc1C [Example I-287] | 5.00 to 6.00 | > 6.00 | +++ (≥350) | > 200 |  |  |  |  |  | 
11 | COc1cc(C(F)(F)F)ccc1CN[C@H]1[C@H](C(C)(C)OC)[C@@H](C(=O)O)N(C(=O)C2CCCCC2)[C@H]1c1ccccc1 [II-150] | 5.00 to 6.00 | > 6.00 | +++ (≥350) | > 200 |  |  |  |  |  | 
12 | COc1ccc(C(C)(C)C)cc1CN[C@H]1[C@H](C(C)(C)C)[C@@H](C(=O)O)N(C(=O)c2ccc(Oc3ccccc3)cc2)[C@H]1c1cccnc1N(C)C [II-464] |  |  |  |  | 100 to 200 | > 6.00 | > 6.00 |  | +++ (≥350) | 
13 | COc1ccc(-c2cccs2)cc1CN[C@H]1[C@H](C(C)(C)C)[C@@H](C(=O)O)N(C(=O)C2CCCCC2)[C@H]1c1ccccc1 [II-275] | > 6.00 | > 6.00 | +++ (≥350) | > 200 |  |  |  |  |  | 
14 | C/C=C/CC(C/C=C/C)C(=O)N1[C@H](C(=O)O)[C@@H](C(C)(C)C)[C@H](NCc2cc(C(C)(C)C)ccc2OC)[C@@H]1c1ccccc1 [II-439] |  |  |  |  | > 200 | 5.00 to 6.00 | > 6.00 |  | +++ (≥350) | 
15 | COc1ccc(-c2ccc(C#N)cc2)cc1CN[C@H]1[C@H](C(C)(C)C)[C@@H](C(=O)O)N(C(=O)C2CCCCC2)[C@H]1c1ccccc1 [II-289] | > 6.00 | 5.00 to 6.00 | +++ (≥350) | < 100 |  |  |  |  |  | 
16 | COc1ccc(C(C)(C)C)cc1CN[C@H]1[C@H](C(C)(C)C)[C@@H](C(=O)O)N(C(=O)[C@@H](C)OC)[C@H]1c1ccccc1 [II-311] | 5.00 to 6.00 | 5.00 to 6.00 | +++ (≥350) | > 200 |  |  |  |  |  | 
17 | COc1ncc(C(F)(F)F)cc1CN[C@H]1[C@H](C(C)(C)C)[C@@H](C(=O)O)N(C(=O)C2CCCC2)[C@H]1c1ccccc1C(C)C [Example 98, (2S,3S,4S,5S)-3-tert-butyl-1-(cyclopentanecarbonyl)-4-({[2-methoxy-5-(trifluoromethyl)pyridin-3-yl]methyl}amino)-5-[2-(propan-2-yl)phenyl]pyrrolidine-2-carboxylic acid] |  |  |  |  |  | > 6.00 | > 6.00 | +++ (≥350) |  | > 200
18 | COc1ccc(C(C)(C)C)cc1CN[C@H]1[C@H](C(C)(C)C)[C@@H](C(=O)O)N(C(=O)CC2CCCCO2)[C@H]1c1ccccc1 (stereo partly drawn) [Example 20, (2S,3S,4S,5S)-3-tert-butyl-4-{[(5-tert-butyl-2-methoxyphenyl)methyl]amino}-1-[(oxan-2-yl)acetyl]-5-phenylpyrrolidine-2-carboxylic acid] |  |  |  |  |  | 5.00 to 6.00 | 5.00 to 6.00 | +++ (≥350) |  | 100 to 200
19 | COc1ccc(C2CC2)cc1CN[C@H]1[C@H](C(C)(C)C)[C@@H](C(=O)O)N(C(=O)C2CCCCC2)[C@H]1c1ccccc1 [II-352] |  |  |  |  | > 200 | 5.00 to 6.00 | > 6.00 |  | +++ (≥350) | 
20 | CC(C)(C)[C@H]1[C@H](NCC2(c3ccccc3Cl)CCOCC2)[C@H](c2ccccc2)N(C(=O)C2CCCCC2)[C@@H]1C(=O)O [Example I-219] |  |  |  |  |  | 5.00 to 6.00 | 5.00 to 6.00 | +++ (≥350) |  | 100 to 200
21 | COc1cc(C(F)(F)F)ccc1CN[C@H]1[C@H](C(C)(C)C)[C@@H](C(=O)O)N(C(=O)[C@@H]2CCCCO2)[C@H]1c1cccnc1OC [II-92] | 5.00 to 6.00 | 5.00 to 6.00 | +++ (≥350) | 100 to 200 |  |  |  |  |  | 
22 | COc1ncc(C(F)(F)F)cc1CN[C@H]1[C@H](C(C)(C)C)[C@@H](C(=O)O)N(C(=O)C2CC2)[C@H]1c1ccccc1C(C)C [Example I-271] | 5.00 to 6.00 | 5.00 to 6.00 | +++ (≥350) | > 200 |  |  |  |  |  | 
23 | COc1ccc(-c2ccccc2C)cc1CN[C@H]1[C@H](C(C)(C)C)[C@@H](C(=O)O)N(C(=O)C2CCCCC2)[C@H]1c1ccccc1 [II-279] | > 6.00 | > 6.00 | +++ (≥350) | > 200 |  |  |  |  |  | 
24 | COc1ncc(C(F)(F)F)cc1CN[C@H]1[C@H](C(C)(C)C)[C@@H](C(=O)O)N(C(=O)OC(C)C)[C@H]1c1ccccc1C(C)C [Example 77, (2S,3S,4S,5S)-3-tert-butyl-4-({[2-methoxy-5-(trifluoromethyl)pyridin-3-yl]methyl}amino)-1-{[(propan-2-yl)oxy]carbonyl}-5-[2-(propan-2-yl)phenyl]pyrrolidine-2-carboxylic acid] |  |  |  |  |  | 5.00 to 6.00 | 5.00 to 6.00 | +++ (≥350) |  | > 200
25 | COc1ccc(C(C)(C)C)cc1CN[C@H]1[C@H](C(C)(C)C)[C@@H](C(=O)O)N(C(=O)C2CCCCC2)[C@H]1c1cccnc1OC [Example 17, (2S,3S,4S,5S)-3-tert-butyl-4-{[(5-tert-butyl-2-methoxyphenyl)methyl]amino}-1-(cyclohexanecarbonyl)-5-(2-methoxypyridin-3-yl)pyrrolidine-2-carboxylic acid] |  |  |  |  |  | 5.00 to 6.00 | > 6.00 | +++ (≥350) |  | > 200
26 | COc1ccc(Cl)cc1CN[C@H]1[C@H](C(C)(C)C)[C@@H](C(=O)O)N(C(=O)C2CCCCC2)[C@H]1c1ccccc1OC [Example I-57] |  |  |  |  |  | 5.00 to 6.00 | 5.00 to 6.00 | +++ (≥350) |  | 100 to 200
27 | COc1ccc(C(C)(C)C)cc1CN[C@H]1[C@H](C(C)(C)C)[C@@H](C(=O)O)N(C(=O)C2CC23CCOCC3)[C@H]1c1ccccc1 (some centres unmarked) [II-442] |  |  |  |  | < 100 | 5.00 to 6.00 | 5.00 to 6.00 |  | +++ (≥350) | 
28 | COc1ccc(C(C)(C)C)cc1CN[C@H]1[C@H](C(C)(C)C)[C@@H](C(=O)O)N(C(=O)C(C)c2ccccc2)[C@H]1c1ccccc1 (some centres unmarked) [II-215] | 5.00 to 6.00 | > 6.00 | +++ (≥350) | > 200 |  |  |  |  |  | 
29 | COc1ccc(Cl)cc1CN[C@H]1[C@H](C(C)(C)C)[C@@H](C(=O)O)N(C(=O)C2CCCCC2)[C@H]1c1ccccc1 [II-97] | 5.00 to 6.00 | > 6.00 | +++ (≥350) | > 200 |  |  |  |  |  | 
